According to ChEMBL document CHEMBL1641578, “Design and synthesis of 3-(azol-1-yl)phenylpropanes as microbicidal spermicides for prophylactic contraception” (Bioorg Med Chem Lett, 2011):
≈ marks a conversion by molar mass, not a printed value.

Key:
Candida albicans [1] = experiment: Antifungal activity against Candida albicans NCIM-3557 after 48 hrs by broth microdilution assay; format: functional; details: NCIM-3557, 48 h
Candida albicans [2] = experiment: Antifungal activity against Candida albicans isolate CDRI after 48 hrs by broth microdilution assay; format: functional
Candida albicans [3] = experiment: Antifungal activity against Candida albicans after 48 hrs by broth microdilution assay; format: functional
Candida albicans [4] = experiment: Antifungal activity against Candida albicans MTCC-183 after 48 hrs by broth microdilution assay; format: functional; details: MTCC-183, 48 h
HeLa = experiment: Cytotoxicity against human HeLa cells at 200 ug/ml after 24 hrs by MTT based colorimetric assay; format: cell-based
Spermatozoa = experiment: Spermicidal activity against human spermatozoa assessed as immobilization measured for 60 seconds by visual scoring; format: functional; set-up: concentration or dose not given beside the values
Candida parapsilosis = experiment: Antifungal activity against Candida parapsilosis after 48 hrs by broth microdilution assay; format: functional; details: Lodderomyces parapsilosis
Trichomonas vaginalis = experiment: Antitrichomonas activity against Trichomonas vaginalis after 48 hrs by trypan blue exclusion assay; format: functional
[5] = Toxicity against Lactobacillus acidophilus at 200 ug/ml after 24 hrs by microplate reader

| SMILES | MIC (Candida albicans [1]) | MIC (Candida albicans [2]) | MIC (Candida albicans [3]) | MIC (Candida albicans [4]) | Activity (HeLa) | Activity (Spermatozoa) | MIC (Candida parapsilosis) | MIC (Trichomonas vaginalis) | Activity [5] |
| --- | --- | --- | --- | --- | --- | --- | --- | --- | --- |
| O=C(CCn1ccnc1)c1ccccc1 | > 50 µg/mL | 50 µg/mL (≈ 250 µM) | > 50 µg/mL | > 50 µg/mL | Non-toxic | 100% | > 50 µg/mL | > 200 µg/mL | Non-toxic |
| O=C(CCn1nnc2ccccc21)c1ccccc1 | 50 µg/mL (≈ 199 µM) | > 50 µg/mL | > 50 µg/mL | > 50 µg/mL | Non-toxic | 80% | 50 µg/mL (≈ 199 µM) | 200 µg/mL (≈ 796 µM) | Non-toxic |
| Cc1nccn1CCC(=O)c1ccccc1 | > 50 µg/mL | 50 µg/mL (≈ 233 µM) | > 50 µg/mL | > 50 µg/mL | Toxic | 100% | > 50 µg/mL | > 200 µg/mL | Non-toxic |
| O=C(CCn1cnc([N+](=O)[O-])c1)c1ccccc1 | > 50 µg/mL | 50 µg/mL (≈ 204 µM) | 50 µg/mL (≈ 204 µM) | > 50 µg/mL | Non-toxic | 100% | > 50 µg/mL | 25 µg/mL (≈ 102 µM) | Non-toxic |
| Cc1ncc([N+](=O)[O-])n1CCC(=O)c1ccccc1 | > 50 µg/mL | 50 µg/mL (≈ 193 µM) | > 50 µg/mL | > 50 µg/mL | Non-toxic | 90% | > 50 µg/mL | 50 µg/mL (≈ 193 µM) | Non-toxic |
| OC(CCn1ccnc1)c1ccccc1 (stereo not drawn) | > 50 µg/mL | 50 µg/mL (≈ 247 µM) | > 50 µg/mL | > 50 µg/mL | Non-toxic | 90% | > 50 µg/mL | > 200 µg/mL | Non-toxic |
| OC(CCn1cnc2ccccc21)c1ccccc1 (stereo not drawn) | > 50 µg/mL | 50 µg/mL (≈ 198 µM) | > 50 µg/mL | > 50 µg/mL | Non-toxic | 90% | > 50 µg/mL | > 200 µg/mL | Non-toxic |
| OC(CCn1cncn1)c1ccccc1 (stereo not drawn) | > 50 µg/mL | > 50 µg/mL | > 50 µg/mL | > 50 µg/mL | Non-toxic | 70% | > 50 µg/mL | > 200 µg/mL | Non-toxic |
| OC(CCn1nnc2ccccc21)c1ccccc1 (stereo not drawn) | > 50 µg/mL | 50 µg/mL (≈ 197 µM) | > 50 µg/mL | > 50 µg/mL | Non-toxic | 100% | > 50 µg/mL | > 200 µg/mL | Non-toxic |
| Cc1nccn1CCC(O)c1ccccc1 (stereo not drawn) | > 50 µg/mL | > 50 µg/mL | > 50 µg/mL | > 50 µg/mL | Non-toxic | 100% | > 50 µg/mL | > 200 µg/mL | Non-toxic |
| O=[N+]([O-])c1cn(CCC(O)c2ccccc2)cn1 (stereo not drawn) | > 50 µg/mL | 50 µg/mL (≈ 202 µM) | > 50 µg/mL | > 50 µg/mL | Non-toxic | 95% | > 50 µg/mL | 25 µg/mL (≈ 101 µM) | Non-toxic |
| Cc1ncc([N+](=O)[O-])n1CCC(O)c1ccccc1 (stereo not drawn) | > 50 µg/mL | > 50 µg/mL | > 50 µg/mL | > 50 µg/mL | Non-toxic | 70% | > 50 µg/mL | 50 µg/mL (≈ 191 µM) | Non-toxic |
| FC(F)(F)c1ccc(OC(CCn2cnc3ccccc32)c2ccccc2)cc1 (stereo not drawn) | > 50 µg/mL | > 50 µg/mL | > 50 µg/mL | > 50 µg/mL | Toxic | 50% | > 50 µg/mL | 25 µg/mL (≈ 63.1 µM) | Toxic |
| FC(F)(F)c1ccc(OC(CCn2cncn2)c2ccccc2)cc1 (stereo not drawn) | > 50 µg/mL | > 50 µg/mL | 50 µg/mL (≈ 144 µM) | 50 µg/mL (≈ 144 µM) | Toxic | 100% | > 50 µg/mL | 50 µg/mL (≈ 144 µM) | Toxic |
| FC(F)(F)c1ccc(OC(CCn2nnc3ccccc32)c2ccccc2)cc1 (stereo not drawn) | > 50 µg/mL | > 50 µg/mL | > 50 µg/mL | > 50 µg/mL | Non-toxic | 70% | > 50 µg/mL | > 200 µg/mL | Non-toxic |
| Cc1nccn1CCC(Oc1ccc(C(F)(F)F)cc1)c1ccccc1 (stereo not drawn) | 50 µg/mL (≈ 139 µM) | 50 µg/mL (≈ 139 µM) | 25 µg/mL (≈ 69.4 µM) | 25 µg/mL (≈ 69.4 µM) | Toxic | 100% | 50 µg/mL (≈ 139 µM) | 25 µg/mL (≈ 69.4 µM) | Toxic |
| O=[N+]([O-])c1cn(CCC(Oc2ccc(C(F)(F)F)cc2)c2ccccc2)cn1 (stereo not drawn) | > 50 µg/mL | > 50 µg/mL | > 50 µg/mL | > 50 µg/mL | Non-toxic | 40% | > 50 µg/mL | 12.5 µg/mL (≈ 31.9 µM) | Non-toxic |
| Cc1ncc([N+](=O)[O-])n1CCC(Oc1ccc(C(F)(F)F)cc1)c1ccccc1 (stereo not drawn) | > 50 µg/mL | > 50 µg/mL | > 50 µg/mL | > 50 µg/mL | Non-toxic | 70% | > 50 µg/mL | 25 µg/mL (≈ 61.7 µM) | Non-toxic |
| C(=C\c1ccccc1)/Cn1ccnc1 | > 50 µg/mL | 25 µg/mL (≈ 136 µM) | > 50 µg/mL | > 50 µg/mL | Non-toxic | 100% | 50 µg/mL (≈ 271 µM) | > 200 µg/mL | Non-toxic |
| O=[N+]([O-])c1cn(C/C=C/c2ccccc2)cn1 | > 50 µg/mL | > 50 µg/mL | > 50 µg/mL | > 50 µg/mL | Non-toxic | 80% | > 50 µg/mL | 25 µg/mL (≈ 109 µM) | Non-toxic |
| Cc1ncc([N+](=O)[O-])n1C/C=C/c1ccccc1 | > 50 µg/mL | > 50 µg/mL | 50 µg/mL (≈ 206 µM) | > 50 µg/mL | Non-toxic | 90% | > 50 µg/mL | 25 µg/mL (≈ 103 µM) | Non-toxic |
| FC(F)(F)c1ccc(OC/C=C/c2ccccc2)cc1 | > 50 µg/mL | 50 µg/mL (≈ 180 µM) | > 50 µg/mL | > 50 µg/mL | Non-toxic | 90% | > 50 µg/mL | > 200 µg/mL | Non-toxic |
| FC(F)(F)c1ccc(OC(CCn2ccnc2)c2ccccc2)cc1 (stereo not drawn) | 50 µg/mL (≈ 144 µM) | 50 µg/mL (≈ 144 µM) | 12.5 µg/mL (≈ 36.1 µM) | 50 µg/mL (≈ 144 µM) | Toxic | 100% | 50 µg/mL (≈ 144 µM) | 12.5 µg/mL (≈ 36.1 µM) | Toxic |
| OC(Cn1cncn1)(Cn1cncn1)c1ccc(F)cc1F [FLUCONAZOLE] | 0.25 µg/mL (≈ 0.816 µM) | 0.25 µg/mL (≈ 0.816 µM) | 0.5 µg/mL (≈ 1.63 µM) | 0.25 µg/mL (≈ 0.816 µM) | – | – | 0.5 µg/mL (≈ 1.63 µM) | – | – |
| Cc1ncc([N+](=O)[O-])n1CCO [METRONIDAZOLE] | – | – | – | – | – | – | – | 2 µg/mL (≈ 11.7 µM) | – |
